pIC50: −log10 of the molar value. Read-outs that look alike come from different tables or passages of the source.
Tested on: MDA-MB-468 cell line with high TROP-2 expression
Experiment: Inhibition test of Exatecan derivatives (payload) on in vitro proliferation of tumor cells
Format: cell-based, human
Settings: read-out: IC50 of MDA-MB-468 cell proliferation inhibition in vitro
Method: The cell line used in this experiment is the MDA-MB-468 cell line with high TROP-2 expression (Nanjing Cobioer Biosciences Co., Ltd., catalog number: CBP60387). Prepare cell suspension with fresh cell culture medium containing 10% FBS at a density of 3×10^3 cells/mL, add 90 μL per well into an all-white 96-well cell culture plate (Beyotime, item number: FCP968-80pcs), 5% carbon dioxide 37° C. for 24 h. Compounds 1-36 were formulated with DMSO to 1 mM, respectively. Add 20 μL of different samples to be tested in the first column of the 96-well U-bottom dispensing plate, and the sample concentration is 1000 uM; add 20 μL DMSO to each well of the second to tenth columns. Take 5 μL of the sample from the first column to 20 μL DMSO in the second column, mix well, take 5 μL to the third column, and so on to the ninth column. Take 5 μL of the medicine from each well of the dispensing plate to 95 μL of DMEM medium, and mix well. Add 10 μL of prepared samples to be tested at different concentrations to the culture plate, and duplicate wells for each sample. 5% carbon dioxide and cultured at 37° C. for 3 days. Add 50 μL of CTG (CellTiter-Glo® Luminescent Cell Viability Assay, Promega, item number: G7573) to each well, mix on a shaker at room temperature for 30 minutes, incubate for 10 minutes, and read chemiluminescence on a microplate reader (TECAN, Spark). Graphpad Prism 8 software used for data analysis.

Row | Compound | pIC50 (Homo sapiens, MDA-MB-468, 72 h) | further results
1 | CC[C@@]1(O)C(=O)OCc2c1cc1n(c2=O)Cc2c-1nc1cc(F)c(C)c3c1c2[C@@H](NC(=O)c1ccc(O)c(Cl)c1)CC3 [Compound 6] | 8.01 | 
2 | CC[C@@]1(O)C(=O)OCc2c1cc1n(c2=O)Cc2c-1nc1cc(F)c(C)c3c1c2[C@@H](NC(=O)CCCc1ccc(N)cc1)CC3 [Compound 26] | 8.48 | 
3 | CC[C@@]1(O)C(=O)OCc2c1cc1n(c2=O)Cc2c-1nc1cc(F)c(C)c3c1c2[C@@H](NC(=O)Cc1ccc(NC(=O)CO)cc1)CC3 [Compound 3] | 7.36 | 
4 | CC[C@@]1(O)C(=O)OCc2c1cc1n(c2=O)Cc2c-1nc1cc(F)c(C)c3c1c2[C@@H](NC(=O)N[C@H]1CCNC1)CC3 [Compound 13] | 7.12 | 
5 | CC[C@@]1(O)C(=O)OCc2c1cc1n(c2=O)Cc2c-1nc1cc(F)c(C)c3c1c2[C@@H](NC(=O)C1CCCN1)CC3 (some centres unmarked) [Compound 36] |  | pIC50 (MDA-MB-468 cells, 3 days, CellTiter-Glo): 8.20
6 | CC[C@@]1(O)C(=O)OCc2c1cc1n(c2=O)Cc2c-1nc1cc(F)c(C)c3c1c2[C@@H](NC(=O)N[C@H]1CCCNC1)CC3 [Compound 12] | 7.25 | 
7 | CC[C@@]1(O)C(=O)OCc2c1cc1n(c2=O)Cc2c-1nc1cc(F)c(C)c3c1c2[C@@H](NC(=O)Cc1ccc(N)cc1OC)CC3 [Compound 19] | 8.12 | 
8 | CC[C@@]1(O)C(=O)OCc2c1cc1n(c2=O)Cc2c-1nc1cc(F)c(C)c3c1c2[C@@H](NC(=O)c1ccc(Cl)c(O)c1)CC3 [Compound 7] | 8.02 | 
9 | CC[C@@]1(O)C(=O)OCc2c1cc1n(c2=O)Cc2c-1nc1cc(F)c(C)c3c1c2[C@@H](NC(=O)Cc1cccc(N)c1)CC3 [Compound 23] |  | pIC50 (Homo sapiens, 72 h, MDA-MB-468 cells, 3 days, CellTiter-Glo): 8.58
10 | CC[C@@]1(O)C(=O)OCc2c1cc1n(c2=O)Cc2c-1nc1cc(F)c(C)c3c1c2[C@@H](NC(=O)C1CNC1)CC3 [Compound 1] | 6.87 | 
11 | CC[C@@]1(O)C(=O)OCc2c1cc1n(c2=O)Cc2c-1nc1cc(F)c(C)c3c1c2[C@@H](NC(=O)[C@@H]1CCCN1C(=O)CO)CC3 [Compound 5] | 7.71 | 
12 | CC[C@@]1(O)C(=O)OCc2c1cc1n(c2=O)Cc2c-1nc1cc(F)c(C)c3c1c2[C@@H](NC(=O)[C@@H]1CCCN1)CC3 [Compound 4] | 8.36 | 
13 | CC[C@@]1(O)C(=O)OCc2c1cc1n(c2=O)Cc2c-1nc1cc(F)c(C)c3c1c2[C@@H](NC(=O)Cc1ccccc1N)CC3 [Compound 24] | 8.78 | 
14 | CC[C@@]1(O)C(=O)OCc2c1cc1n(c2=O)Cc2c-1nc1cc(F)c(C)c3c1c2[C@@H](NC(=O)CCc1ccc(N)cc1)CC3 [Compound 25] | 8.06 | 
15 | CC[C@@]1(O)C(=O)OCc2c1cc1n(c2=O)Cc2c-1nc1cc(F)c(C)c3c1c2[C@@H](NC(=O)Cc1ccc(N)cc1)CC3 [Compound 2] | 8.47 | 
16 | CC[C@@]1(O)C(=O)OCc2c1cc1n(c2=O)Cc2c-1nc1cc(F)c(C)c3c1c2[C@@H](NC(=O)NCC(F)(F)F)CC3 [Compound 8] | 8.57 | 
17 | CC[C@@]1(O)C(=O)OCc2c1cc1n(c2=O)Cc2c-1nc1cc(F)c(C)c3c1c2[C@@H](NC(=O)Cc1ccc(N)cc1F)CC3 [Compound 21] | 8.52 | 
18 | CC[C@@]1(O)C(=O)OCc2c1cc1n(c2=O)Cc2c-1nc1cc(F)c(C)c3c1c2[C@@H](NC(=O)Cc1ccc(O)cc1)CC3 [Compound 22] | 8.59 | 
19 | CC[C@@]1(O)C(=O)OCc2c1cc1n(c2=O)Cc2c-1nc1cc(F)c(C)c3c1c2[C@@H](NC(=O)N[C@@H]1CCNC1)CC3 [Compound 14] | 7.32 | 
20 | CC[C@@]1(O)C(=O)OCc2c1cc1n(c2=O)Cc2c-1nc1cc(F)c(C)c3c1c2[C@@H](NC(=O)C1CCNCC1)CC3 [Compound 31] | 6.87 | 
